Laboratory results: US7659400B2, “Radiolabelled benzamide analogues, their synthesis and use in diagnostic imaging” (Washington University, priority 2003, dated 2010)
Where a chain is given by its changes, count along the chain named. Several values for one entry are separate records, joined by “and”; a condition that tells them apart may be missing. Equal values may be shown once.

Key:
[1] = target: T1, σ2 receptors (Mus musculus, UniProt Q8VD00); experiment: Blocking study: co-injection of 1 mg/kg YUN-143 in EMT-6 tumor-bearing mice; format: in vivo; conditions: 1 mg/kg YUN-143, 1 h post-injection
T1 construct: from tissue; host or cells: EMT-6 tumours in female Balb/c mice, in vivo
T1 sequence (Q8VD00 1-176): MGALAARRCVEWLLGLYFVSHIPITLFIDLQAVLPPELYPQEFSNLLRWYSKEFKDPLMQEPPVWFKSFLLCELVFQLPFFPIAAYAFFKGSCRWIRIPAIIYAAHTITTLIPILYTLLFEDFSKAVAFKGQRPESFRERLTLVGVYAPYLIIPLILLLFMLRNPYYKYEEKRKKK
Description: These blocking studies in tumor-bearing mice were conducted by co-injecting 1 mg/kg of cold N-(4-fluorobenzyl) piperidinyl-4-(3-bromophenyl)acetamide (YUN-143) with [^18F]3c or [^18F]3f.

[2] = system: EMT-6 tumors; experiment: Biodistribution of 18F-labeled ligands in mice bearing EMT-6 tumors; format: in vivo, female Balb/c mice
Description: This example illustrates in vivo evaluation of compounds of the present teachings. All animal experiments were conducted in compliance with the Guidelines for the Care and Use of Research Animals established by Washington University's Animal Studies Committee. EMT-6 mouse mammary adenocarcinoma cells (5×10^5 cells in 100 uL of phosphate-buffered saline) were implanted subcutaneously in the scapular region of female Balb/c mice (˜2-month old and 17-22 g; Charles River Laboratories). […] Groups of at least 4 mice were used for each time point. […] After counting, the percentage of the injected dose per gram of tissue (%ID/g) was calculated. The tumor/organ ratios were calculated by dividing the %ID/g of the tumor by the %ID/g of each organ.

[3] = target: T2, σ1 receptors (Cavia porcellus, UniProt Q60492)
T2 sequence (Q60492 whole entry): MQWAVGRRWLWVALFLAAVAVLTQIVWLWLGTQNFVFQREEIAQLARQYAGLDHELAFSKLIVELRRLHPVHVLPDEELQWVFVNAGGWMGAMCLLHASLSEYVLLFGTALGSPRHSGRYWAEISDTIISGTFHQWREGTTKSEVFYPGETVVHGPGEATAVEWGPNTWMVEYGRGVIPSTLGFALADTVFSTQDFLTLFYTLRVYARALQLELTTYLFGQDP
Description: (§1) In these assays, the novel sigma ligands were dissolved in N,N-dimethylformamide (DMF), DMSO or ethanol, and then diluted in 50 mM Tris-HCl buffer containing 150 mM NaCl and 100 mM EDTA at pH 7.4 prior to performing the σ1 and σ2 receptor binding assays. […] The samples were harvested and filtered rapidly through a 96-well fiber glass filter plate (millipore, Billerica, Mass.) that had been presoaked with 100 μL of 50 mM Tris-HCl buffer at pH 8.0 for 1 h.
(§2) The Ki values were determine from Scatchard plots.

[4] = Log D calculated using the program ACD/log D; conditions: spacer group four carbons (3c) versus two carbons (3a)
[5] = target: T2, σ1 receptors; experiment: σ1 receptor binding assay, [^3H](+)-pentazocine, guinea pig brain membrane homogenates; conditions: spacer group four carbons (3c) versus two carbons (3a)
Description: as §1, §2

[6] = target: T3, σ2 receptors (Rattus norvegicus, UniProt Q5U3Y7); experiment: σ2 receptor binding assay, [^3H]DTG in the presence of (+)-pentazocine, rat liver membrane homogenates
T3 construct: conducted using rat liver membrane homogenates; from tissue; host or cells: rat liver membrane homogenates
T3 sequence (Q5U3Y7 1-176): T1 sequence (Q8VD00 1-176) with L4V, A5T, L26M, V33L, L71F, A105V, L118I, V127I, S136N, Y169F
Description: The incubation time was 120 min at room temperature. […] All other procedures were identical to those described for the σ1 receptor binding assay above.

In the case of `COc1cc2c(cc1OC)CN(CCCCNC(=O)c1cc(I)cc(OC)c1OCC[18F])CC2` [[^18F]3f], the “decrease in the tumor:fat ratio on co-injection of YUN-143” value [1] is reported as ~50%, the “decrease in the tumor:muscle ratio on co-injection of YUN-143” value [1] is reported as ~50% and the “Biodistribution: blood” value ([2]; 5 min after i.v. injection) is reported as 1.82 ± 0.25 %ID/g. For the same compound, the “Biodistribution: bone” value ([2]; 5 min after i.v. injection) was 2.23 ± 0.56 %ID/g, the “Biodistribution: brain” value ([2]; 5 min after i.v. injection) was 0.71 ± 0.09 %ID/g and the “Biodistribution: fat” value ([2]; 5 min after i.v. injection) was 4.13 ± 0.86 %ID/g. For the same compound, the “Biodistribution: heart” value ([2]; 5 min after i.v. injection) was 5.60 ± 0.45 %ID/g, the “Biodistribution: kidney” value ([2]; 5 min after i.v. injection) was 19.98 ± 1.66 %ID/g and the “Biodistribution: liver” value ([2]; 5 min after i.v. injection) was 15.21 ± 2.21 %ID/g. For the same compound, the “Biodistribution: lung” value ([2]; 5 min after i.v. injection) was 18.47 ± 3.07 %ID/g, the “Biodistribution: muscle” value ([2]; 5 min after i.v. injection) was 2.50 ± 0.33 %ID/g and the “Biodistribution: tumor (tumor uptake)” value ([2]; 5 min after i.v. injection) was 3.05 ± 0.43 %ID/g. The “Biodistribution: blood” value ([2]; 30 min after i.v. injection) was 1.23 ± 0.28 %ID/g, the “Biodistribution: bone” value ([2]; 30 min after i.v. injection) was 2.01 ± 0.53 %ID/g and the “Biodistribution: brain” value ([2]; 30 min after i.v. injection) was 0.27 ± 0.04 %ID/g. For the same compound, the “Biodistribution: fat” value ([2]; 30 min after i.v. injection) was 1.36 ± 0.50 %ID/g, the “Biodistribution: heart” value ([2]; 30 min after i.v. injection) was 1.54 ± 0.31 %ID/g and the “Biodistribution: kidney” value ([2]; 30 min after i.v. injection) was 7.73 ± 2.25 %ID/g. The “Biodistribution: liver” value ([2]; 30 min after i.v. injection) was 10.73 ± 2.98 %ID/g, the “Biodistribution: lung” value ([2]; 30 min after i.v. injection) was 3.75 ± 0.58 %ID/g and the “Biodistribution: muscle” value ([2]; 30 min after i.v. injection) was 0.73 ± 0.14 %ID/g. The “Biodistribution: tumor (tumor uptake)” value ([2]; 30 min after i.v. injection) was 3.11 ± 0.16 %ID/g, the “Biodistribution: tumor (tumor uptake)” value ([2]; 60 min (1 h) after i.v. injection) was 2.15 %ID/g and 2.15 ± 0.25 %ID/g and the “Biodistribution: blood” value ([2]; 60 min after i.v. injection) was 0.65 ± 0.09 %ID/g. For the same compound, the “Biodistribution: bone” value ([2]; 60 min after i.v. injection) was 0.93 ± 0.16 %ID/g, the “Biodistribution: brain” value ([2]; 60 min after i.v. injection) was 0.14 ± 0.02 %ID/g and the “Biodistribution: fat” value ([2]; 60 min after i.v. injection) was 0.47 ± 0.07 %ID/g. For the same compound, the “Biodistribution: heart” value ([2]; 60 min after i.v. injection) was 0.69 ± 0.06 %ID/g, the “Biodistribution: kidney” value ([2]; 60 min after i.v. injection) was 3.50 ± 0.80 %ID/g and the “Biodistribution: liver” value ([2]; 60 min after i.v. injection) was 5.57 ± 0.31 %ID/g. The “Biodistribution: lung” value ([2]; 60 min after i.v. injection) was 1.51 ± 0.13 %ID/g, the “Biodistribution: muscle” value ([2]; 60 min after i.v. injection) was 0.40 ± 0.07 %ID/g and the “Biodistribution: tumor (tumor uptake)” value ([2]; 120 min (2 h) after i.v. injection) was 1.15 %ID/g and 1.15 ± 0.23 %ID/g. For the same compound, the “Biodistribution: blood” value ([2]; 120 min after i.v. injection) was 0.28 ± 0.01 %ID/g, the “Biodistribution: bone” value ([2]; 120 min after i.v. injection) was 0.59 ± 0.09 %ID/g and the “Biodistribution: brain” value ([2]; 120 min after i.v. injection) was 0.08 ± 0.01 %ID/g. For the same compound, the “Biodistribution: fat” value ([2]; 120 min after i.v. injection) was 0.17 ± 0.05 %ID/g, the “Biodistribution: heart” value ([2]; 120 min after i.v. injection) was 0.39 ± 0.04 %ID/g and the “Biodistribution: kidney” value ([2]; 120 min after i.v. injection) was 1.34 ± 0.10 %ID/g. For the same compound, the “Biodistribution: liver” value ([2]; 120 min after i.v. injection) was 2.61 ± 0.69 %ID/g, the “Biodistribution: lung” value ([2]; 120 min after i.v. injection) was 0.74 ± 0.03 %ID/g and the “Biodistribution: muscle” value ([2]; 120 min after i.v. injection) was 0.15 ± 0.01 %ID/g. The “tumor:fat ratio” value ([2]; 2 h after i.v. injection) was ~7, the “tumor:muscle ratio” value ([2]; 2 h after i.v. injection) was ~8 and the “clearance from the blood (in words)” value ([2]; mouse, in vivo) was “rapid clearance from the blood”.

In the case of `COc1cc2c(cc1OC)CN(CCCCNC(=O)c1cc(C)ccc1OCCF)CC2` [compound 3c, N-[6,7-dimethoxy-3,4-dihydro-1H-isoquinolin-2-yl-butyl]-2-(2-fluoro-ethoxy)-5-methyl-benzamide], the Ki [3] is reported as 330 ± 25 nM, the “increase in the log D value relative to 3a” value [4] is reported as 0.5 unit and the “increase in the affinity for σ1 receptors relative to 3a” value [5] is reported as 69 fold. The “σ1:σ2 Ratio” value ([6]; ratio of Ki values) was 48 and the “increase in the affinity for σ2 receptors relative to 3a” value ([6]; spacer group four carbons (3c) versus two carbons (3a)) was 15 fold.
